For data set [1], the target named is T1, tmCBP (Thermotoga maritima cellobiose-binding protein) (Thermotoga maritima, UniProt Q9WXN8).
T1 construct: gene TM_0031; recombinant, E. coli BL21-RIL, nickel chelation purification (tagged); 582 residues modelled; ligand-free protein from Enfor's minimal medium
Briefly: CD thermal denaturation at […] nm. The conditions noted are these: Tm without ligand 94.8 °C; 1 mM ligand, 0.5 μM protein, 2 M guanidine hydrochloride, 10 mM Tris-HCl pH 8.0, 40 mM NaCl.

In data set [2] the target is T1, tmCBP (Thermotoga maritima cellobiose-binding protein). Briefly: small-angle neutron scattering, ligand-induced closure. As to conditions: 5 mM ligand, 20 mM Tris pH 8.0, 40 mM NaCl, D2O, 20 °C.
Data set [3] deals with the molecule itself. Briefly: small-angle neutron scattering (SANS); tmCBP at 4.2-16.7 mg/mL in 20 mM Tris pH 8.0, 40 mM NaCl, 100% D2O, 20°C; molecular mass from the intensity at zero scattering angle; apo protein, and with 5 mM cellobiose added (associations then alleviated).

The Tm is the temperature at the midpoint of the melting transition. Take `OC[C@H]1O[C@@H](O[C@H]2[C@H](O)[C@@H](CO)OC(O)[C@@H]2O)[C@H](O)[C@@H](O)[C@@H]1O` (stereo partly shown) [LR2, laminaribiose]: in data set [1], the Tm stood at 99.2 °C.

Consider `OC[C@H]1O[C@@H](O[C@@H]2[C@@H](O)[C@H](O[C@@H]3[C@@H](O)[C@H](O[C@@H]4[C@@H](O)[C@H](O[C@H]5[C@H](O)[C@@H](CO)OC(O)[C@@H]5O)O[C@H](CO)[C@H]4O)O[C@H](CO)[C@H]3O)O[C@H](CO)[C@H]2O)[C@H](O)[C@@H](O)[C@@H]1O` (stereo partly shown) [LR5, laminaripentaose], for which the Tm in data set [1] was determined as 105.2 °C.

Regarding `OC[C@H]1O[C@@H](O[C@H]2[C@H](O)[C@@H](O)C(O)O[C@@H]2CO)[C@H](O)[C@@H](O)[C@@H]1O` (stereo partly shown) [cellobiose], in data set [2], the “small-angle neutron scattering, ligand-induced closure” value was “Upon addition of ligand the protein undergoes large scale conformational changes”.

B1: Thermotoga maritima cellobiose binding protein (natural protein)
chain: QVSLPREDTVYIGGALWGPATTWNLYAPQSTWGTDQFMYLPAFQYDLGRDAWIPVIAERYEFVDDKTLRIYIRPEARWSDGVPITADDFVYALELTKELGIGPGGGWDTYIEYVKAVDTKVVEFKAKEENLNYFQFLSYSLGAQPMPKHVYERIRAQMNIKDWINDKPEEQVVSGPYKLYYYDPNIVVYQRVDDWWGKDIFGLPRPKYLAHVIYKDNPSASLAFERGDIDWNGLFIPSVWELWEKKGLPVGTWYKKEPYFIPDGVGFVYVNNTKPGLSDPAVRKAIAYAIPYNEMLKKAYFGYGSQAHPSMVIDLFEPYKQYIDYELAKKTFGTEDGRIPFDLDMANKILDEAGYKKGPDGVRVGPDGTKLGPYTISVPYGWTDWMMMCEMIAKNLRSIGIDVKTEFPDFSVWADRMTKGTFDLIISWSVGPSFDHPFNIYRFVLDKRLSKPVGEVTWAGDWERYDNDEVVELLDKAVSTLDPEVRKQAYFRIQQIIYRDMPSIPAFYTAHWYEYSTKYWINWPSEDNPAWFRPSPWHADAWPTLFIISKKSDPQPVPSWLGTVDEGGIEIPTAKIFEDLQKATM
notes: final crystal models hold 582 amino acids; expected mass 68.7 kDa; the apo (ligand-free) form was used for the SANS measurement of self-association; also called tmCBP
B1: in data set [3], the binding result is “binds”.

Values taken from PMC3850815, “Molecular details of ligand selectivity determinants in a promiscuous β-glucan periplasmic binding protein” (BMC Structural Biology, 2013).
